Assays:
in vivo [1] = settings: rat, po, 1 mg/kg
in vivo [2] = settings: rat, iv, 0.5 mg/kg
in vivo [3] = settings: rat, po, 100 mg/kg
in vivo [4] = settings: rat, po, 100 mg/kg; remark: listed apart in the source
in vivo [5] = settings: Beagle, dog, iv
in vivo [6] = settings: BALB/c, mouse, po, 5 mg/kg
in vivo [7] = settings: BALB/c, mouse, iv, 0.5 mg/kg
in vivo [8] = settings: BALB/c, mouse, iv, 0.5 mg/kg; remark: listed apart in the source
in vivo [9] = settings: rat, po, 50 mg/kg
in vitro [10] = settings: human, microsomes
in vivo [11] = settings: rat, po, 100 mg/kg; remark: listed apart in the source
in vivo [12] = settings: BALB/c, mouse, po, 5 mg/kg; remark: listed apart in the source
in vitro [13] = settings: CD1, mouse, microsomes
in vivo [14] = settings: rat, po, 1 mg/kg; remark: listed apart in the source
in vivo [15] = settings: Beagle, dog, iv; remark: listed apart in the source
in vivo [16] = settings: Beagle, dog, po, 0.5 mg/kg
in vivo [17] = settings: rat, po, 50 mg/kg; remark: listed apart in the source
in vivo [18] = settings: rat, po, 1 mg/kg; remark: listed apart in the source
in vivo [19] = settings: Beagle, dog, po, 0.5 mg/kg; remark: listed apart in the source
in vivo [20] = settings: rat, po, 50 mg/kg; remark: listed apart in the source
in vivo [21] = settings: Beagle, dog, po, 0.5 mg/kg; remark: listed apart in the source
in vivo [22] = settings: rat, po, 50 mg/kg; remark: listed apart in the source
in vivo [23] = settings: rat, po, 100 mg/kg; remark: listed apart in the source
in vivo [24] = settings: BALB/c, mouse, po, 5 mg/kg; remark: listed apart in the source
in vivo [25] = settings: rat, po, 1 mg/kg; remark: listed apart in the source
in vivo [26] = settings: Beagle, dog, po, 0.5 mg/kg; remark: listed apart in the source
in vivo [27] = settings: Beagle, dog, po, 0.5 mg/kg; remark: listed apart in the source
in vivo [28] = settings: rat, po, 100 mg/kg; remark: listed apart in the source
in vivo [29] = settings: rat, iv, 0.5 mg/kg; remark: listed apart in the source
physchem = settings: buffer, pH 7.4
in vivo [30] = settings: rat, po, 1 mg/kg; remark: listed apart in the source
in vivo [31] = settings: rat, po, 50 mg/kg; remark: listed apart in the source

COc1cc(F)cc([C@@H](CO)NC(=O)[C@@H](C)N2Cc3ccc(-c4nc(NC5CCOCC5)ncc4Cl)cc3C2=O)c1 [BEROTERKIB ANHYDROUS]
half-life at 24 h (in vivo [1]): 1.5 h | clearance at 24 h (in vivo [2]): 18 mL/min/kg | bioavailability at 24 h (in vivo [3]): > 100% | half-life at 24 h (in vivo [4]): 2.5 h | Vd at 24 h (in vivo [5]): 0.071 L/kg | AUC at 24 h (in vivo [6]): 1600 ng·h/mL | clearance at 24 h (in vivo [7]): 22 mL/min/kg | Vd at 24 h (in vivo [8]): 0.68 L/kg | Cmax at 24 h (in vivo [9]): 2740 ng/mL | half-life at 40 min, 1 µM (in vitro [10]): 0.55 h | Cmax at 24 h (in vivo [11]): 15700 ng/mL | half-life at 24 h (in vivo [12]): 2.9 h | half-life at 40 min, 1 µM (in vitro [13]): 0.767 h | Cmax at 24 h (in vivo [14]): 25.8 ng/mL | clearance at 24 h (in vivo [15]): 0.56 mL/min/kg | AUC at 24 h (in vivo [16]): 12300 ng·h/mL | half-life at 24 h (in vivo [17]): 2.8 h | Tmax at 24 h (in vivo [18]): 0.5 h | Cmax at 24 h (in vivo [19]): 3660 ng/mL | AUC at 24 h (in vivo [20]): 17500 ng·h/mL | Tmax at 24 h (in vivo [21]): 1 h | bioavailability at 24 h (in vivo [22]): 35% | Tmax at 24 h (in vivo [23]): 2 h | bioavailability at 24 h (in vivo [24]): 42% | bioavailability at 24 h (in vivo [25]): 6.1% | bioavailability at 24 h (in vivo [26]): 91% | half-life at 24 h (in vivo [27]): 1.1 h | AUC at 24 h (in vivo [28]): 118000 ng·h/mL | Vd at 24 h (in vivo [29]): 0.77 L/kg | chromatographic logD (physchem): 3.8 | AUC at 24 h (in vivo [30]): 57.9 ng·h/mL | Tmax at 24 h (in vivo [31]): 2 h

Reference: ChEMBL document CHEMBL4828736, “Discovery of ASTX029, A Clinical Candidate Which Modulates the Phosphorylation and Catalytic Activity of ERK1/2” (J Med Chem, 2021)
